Results reported in patent publication US20200399264A1, “4-SUBSTITUTED-2-THIAZOLE AMIDES AS ANTIVIRAL AGENTS” (Southern Research Institute, priority 2019, published 2020).

Assays:
CHIKV = experiment: antiviral activity against CHIKV (VTR and EC90); format: cell-based; details: Chikungunya virus; for log reduction at 10 µM: read-out: VTR @ 10 μM (logs)
Text: As used herein, “EC90,” is intended to refer to the concentration of a substance (e.g., a compound or a drug) that is required for 90% agonism of a biological process, or component of a process, including a protein, subunit, organelle, ribonucleoprotein, etc. In one aspect, an EC90 can refer to the concentration of a substance that is required for 90% agonism in vivo, as further defined elsewhere herein. In a further aspect, […].

[1] = cell cytotoxicity in a cell viability assay (CC50); format: cell-based; details: concentration required for 50% cell survival
Text: As used herein, “CC50,” is intended to refer to the cell cytotoxicity to the concentration of a substance (e.g., a compound or a drug) that is required for 50% cell survival in a cell viability assay in vitro.

Question: For CSc1ncccc1C(=O)Nc1nc(-c2cccc(-c3ccc(C(=O)O)cc3)c2)cs1 [Compound 24, 3′-(2-(2-(Methylthio)nicotinamido)thiazol-4-yl)-[1,1′-biphenyl]-4-carboxylic acid], which log reduction at 10 µM (CHIKV) is on record?
Answer: 1.49

Question: And the CC50 [1]?
Answer: > 40 µM

Question: With CSc1ncccc1C(=O)Nc1nc(-c2cccc(Nc3ccc(CN)cc3)c2)cs1 [Compound 45, N-(4-(3-((4-(aminomethyl)phenyl)amino)phenyl)thiazol-2-yl)-2-(methylthio)nicotinamide] as the compound, how does the EC90 (CHIKV) read?
Answer: 5.8 µM

Question: What about the log reduction at 10 µM (CHIKV) of the same compound?
Answer: 1.23

Question: What about the CC50 [1] of the same compound?
Answer: 12.8 µM

Question: For CSc1ncccc1C(=O)Nc1nc(-c2cccc(Nc3ccc(C#N)cn3)c2)cs1 [Compound 51, N-(4-(3-((5-cyanopyridin-2-yl)amino)phenyl)thiazol-2-yl)-2-(methylthio)nicotinamide], which EC90 (CHIKV) is on record?
Answer: 4.84 µM

Question: And the log reduction at 10 µM (CHIKV)?
Answer: 2.16

Question: And the CC50 [1]?
Answer: > 40 µM

Question: With COC(=O)C12CC(C(=O)Nc3nc(-c4cccc(Nc5ccc(C#N)cc5)c4)cs3)(C1)C2 [Compound 43, Methyl 3-((4-(3-((4-cyanophenyl)amino)phenyl)thiazol-2-yl)carbamoyl)bicyclo[1.1.1]pentane-1-carboxylate] as the compound, how does the EC90 (CHIKV) read?
Answer: 10.1 µM

Question: And the log reduction at 10 µM (CHIKV)?
Answer: 0.74

Question: What about the CC50 [1] of the same compound?
Answer: 13 µM

Question: With CC(C)(C)c1ccc(C(=O)Nc2nc(-c3cccc(-c4ccc(CN)cc4)c3)cs2)cc1 [Compound 27, N-(4-(4′-(Aminomethyl)-[1,1′-biphenyl]-3-yl)thiazol-2-yl)-4-(tert-butyl)benzamide] as the compound, how does the EC90 (CHIKV) read?
Answer: 1.27 µM

Question: What about the log reduction at 10 µM (CHIKV) of the same compound?
Answer: 5.24

Question: And the CC50 [1]?
Answer: 9.02 µM

Question: What does the source list for CSc1ncccc1C(=O)Nc1nc(-c2cccc(-c3ccc(F)cn3)c2)cs1 [Compound 15, N-(4-(3-(5-Fluoropyridin-2-yl)phenyl)thiazol-2-yl)-2-(methylthio)nicotinamide]?
Answer: EC90 (CHIKV): 0.33 µM; log reduction at 10 µM (CHIKV): 5.64; CC50 [1]: > 40 µM

Question: With CSc1ncccc1C(=O)Nc1nc(-c2cccc(-c3ccc(F)nc3)c2)cs1 [Compound 16, N-(4-(3-(6-Fluoropyridin-3-yl)phenyl)thiazol-2-yl)-2-(methylthio)nicotinamide] as the compound, how does the EC90 (CHIKV) read?
Answer: 0.33 µM

Question: And the log reduction at 10 µM (CHIKV)?
Answer: 6.09

Question: And the CC50 [1]?
Answer: > 30 µM

Question: For CSc1ncccc1C(=O)Nc1nc(-c2cccc(-n3ccnc3)c2)cs1 [Compound 29, N-(4-(3-(1H-imidazol-1-yl)phenyl)thiazol-2-yl)-2-(methylthio)nicotinamide], which EC90 (CHIKV) is on record?
Answer: 0.27 µM

Question: What about the log reduction at 10 µM (CHIKV) of the same compound?
Answer: 1.39

Question: What about the CC50 [1] of the same compound?
Answer: > 40 µM

Question: Which results are given for N#Cc1ccc(Nc2cccc(-c3csc(NC(=O)C45CC(C(=O)O)(C4)C5)n3)c2)cc1 [Compound 42, 3-((4-(3-((4-Cyanophenyl)amino)phenyl)thiazol-2-yl)carbamoyl)bicyclo[1.1.1]pentane-1-carboxylic Acid]?
Answer: EC90 (CHIKV): > 10 µM; log reduction at 10 µM (CHIKV): 0; CC50 [1]: > 40 µM

Question: What does the source list for CSc1ncccc1C(=O)Nc1nc(-c2cc(Nc3ccc(C#N)cc3)cc(N3CCOCC3)c2)cs1 [Compound 47, N-(4-(3-((4-cyanophenyl)amino)-5-morpholinophenyl)thiazol-2-yl)-2-(methylthio)nicotinamide]?
Answer: EC90 (CHIKV): 0.1 µM; log reduction at 10 µM (CHIKV): 5.14; CC50 [1]: > 40 µM

Question: With N#Cc1ccc(-c2cccc(-c3csc(NC(=O)C4CCNCC4)n3)c2)cc1 [Compound 11, N-(4-(4′-Cyano-[1,1′-biphenyl]-3-yl)thiazol-2-yl)piperidine-4-carboxamide] as the compound, how does the log reduction at 10 µM (CHIKV) read?
Answer: 8.5

Question: What about the CC50 [1] of the same compound?
Answer: > 30 µM

Question: Which results are given for N#Cc1ccc(Nc2cccc(-c3csc(NC(=O)C45CC(C#N)(C4)C5)n3)c2)cc1 [Compound 52, 3-cyano-N-(4-(3-((4-cyanophenyl)amino)phenyl)thiazol-2-yl)bicyclo[1.1.1]pentane-1-carboxamide]?
Answer: EC90 (CHIKV): 1.5 µM; log reduction at 10 µM (CHIKV): 5.58; CC50 [1]: 9 µM

Question: With CSc1ncccc1C(=O)Nc1nc(-c2cc(F)cc(-c3ccc(C#N)cc3)c2)cs1 [Compound 19, N-(4-(4′-Cyano-5-fluoro-[1,1′-biphenyl]-3-yl)thiazol-2-yl)-2-(methylthio)nicotinamide] as the compound, how does the EC90 (CHIKV) read?
Answer: 0.19 µM

Question: What about the log reduction at 10 µM (CHIKV) of the same compound?
Answer: 6.1

Question: And the CC50 [1]?
Answer: > 30 µM

Question: Which log reduction at 10 µM (CHIKV) does the source give for CSc1ncccc1C(=O)Nc1nc(-c2cc(C(=O)O)cc(-c3ccc(C#N)cc3)c2)cs1 [Compound 21, 4′-cyano-5-(2-(2-(methylthio)nicotinamido)thiazol-4-yl)-[1,1′-biphenyl]-3-carboxylic Acid] here?
Answer: < 1

Question: What about the CC50 [1] of the same compound?
Answer: > 40 µM

Question: For COC1CCC(C(=O)Nc2nc(-c3cccc(Nc4ccc(C#N)cc4)c3)cs2)CC1 (centres unmarked) [Compound 50, N-(4-(3-((4-cyanophenyl)amino)phenyl)thiazol-2-yl)-4-methoxycyclohexane-1-carboxamide], which EC90 (CHIKV) is on record?
Answer: 0.1 µM

Question: And the log reduction at 10 µM (CHIKV)?
Answer: 4.53

Question: What about the CC50 [1] of the same compound?
Answer: 12.4 µM

Question: What does the source list for CSc1ncccc1C(=O)Nc1nc(-c2cccc(-c3ccc(C#N)cn3)c2)cs1 [Compound 14, N-(4-(3-(5-Cyanopyridin-2-yl)phenyl)thiazol-2-yl)-2-(methylthio)nicotinamide]?
Answer: EC90 (CHIKV): 0.62 µM; log reduction at 10 µM (CHIKV): 6; CC50 [1]: > 40 µM

Question: Which EC90 (CHIKV) does the source give for CSc1ncccc1C(=O)Nc1nc(-c2cccc(-c3ccccc3)c2)cs1 [Compound 1, N-(4-([1,1′-Biphenyl]-3-yl)thiazol-2-yl)-2-(methylthio)nicotinamide] here?
Answer: 0.38 µM

Question: And the log reduction at 10 µM (CHIKV)?
Answer: 7.82

Question: What about the CC50 [1] of the same compound?
Answer: > 40 µM

Question: Which results are given for CC(C)(C)c1ccc(C(=O)Nc2nc(-c3cccc(Nc4ccc(C#N)cc4)c3)cs2)nc1 [Compound 41, 5-(Tert-Butyl)-N-(4-(3-((4-cyanophenyl)amino)phenyl)thiazol-2-yl)picolinamide]?
Answer: EC90 (CHIKV): > 10 µM; log reduction at 10 µM (CHIKV): 0.82; CC50 [1]: > 40 µM

Question: For CSc1ncccc1C(=O)Nc1nc(-c2cccc(Nc3cccc(C(F)(F)F)c3)c2)cs1 [Compound 40, 2-(Methylthio)-N-(4-(3-((3-(trifluoromethyl)phenyl)amino)phenyl)thiazol-2-yl)nicotinamide], which EC90 (CHIKV) is on record?
Answer: 3.1 µM

Question: And the log reduction at 10 µM (CHIKV)?
Answer: 5.36

Question: And the CC50 [1]?
Answer: > 40 µM

Question: For COc1c(F)cc(C(=O)Nc2nc(-c3cccc(-c4ccc(C#N)cc4)c3)cs2)cc1F [Compound 10, N-(4-(4′-Cyano-[1,1′-biphenyl]-3-yl)thiazol-2-yl)-3,5-difluoro-4-methoxybenzamide], which EC90 (CHIKV) is on record?
Answer: 0.31 µM

Question: And the log reduction at 10 µM (CHIKV)?
Answer: 7.6

Question: What about the CC50 [1] of the same compound?
Answer: > 30 µM

Question: What does the source list for CSc1ncccc1C(=O)Nc1nc(-c2cc(-c3ccc(C#N)cc3)ccc2F)cs1 [Compound 17, N-(4-(4′-Cyano-4-fluoro-[1,1′-biphenyl]-3-yl)thiazol-2-yl)-2-(methylthio)nicotinamide]?
Answer: EC90 (CHIKV): 0.34 µM; log reduction at 10 µM (CHIKV): 5.75; CC50 [1]: 25 µM

Question: What does the source list for CSc1ncccc1C(=O)Nc1nc(-c2cccc(-c3ccc(C#N)cc3)n2)cs1 [Compound 13, N-(4-(6-(4-Cyanophenyl)pyridin-2-yl)thiazol-2-yl)-2-(methylthio)nicotinamide]?
Answer: log reduction at 10 µM (CHIKV): 2.72; CC50 [1]: 16.3 µM

Question: Which results are given for CSc1ncccc1C(=O)Nc1nc(-c2cccc(N3CCCC3=O)c2)cs1 [Compound 35, 2-(Methylthio)-N-(4-(3-(2-oxopyrrolidin-1-yl)phenyl)thiazol-2-yl)nicotinamide]?
Answer: log reduction at 10 µM (CHIKV): < 1; CC50 [1]: 39.4 µM

Question: For CSc1ncccc1C(=O)Nc1nc(-c2cccc(N3CCN(C(C)=O)CC3)c2)cs1 [Compound 32, N-(4-(3-(4-acetylpiperazin-1-yl)phenyl)thiazol-2-yl)-2-(methylthio)nicotinamide], which log reduction at 10 µM (CHIKV) is on record?
Answer: < 1

Question: And the CC50 [1]?
Answer: > 40 µM

Question: Which EC90 (CHIKV) does the source give for CC(C)(C#N)c1ccc(C(=O)Nc2nc(-c3cccc(Nc4ccc(C#N)cc4)c3)cs2)cc1 [Compound 44, N-(4-(3-((4-cyanophenyl)amino)phenyl)thiazol-2-yl)-4-(2-cyanopropan-2-yl)benzamide] here?
Answer: 0.98 µM

Question: What about the log reduction at 10 µM (CHIKV) of the same compound?
Answer: 2.65

Question: What about the CC50 [1] of the same compound?
Answer: > 40 µM

Question: What does the source list for CSc1ncccc1C(=O)Nc1nc(-c2cccc(Nc3ccc(C#N)cc3)c2)cs1 [Compound 37, N-(4-(3-((4-Cyanophenyl)amino)phenyl)thiazol-2-yl)-2-(methylthio)nicotinamide]?
Answer: EC90 (CHIKV): 0.45 µM; log reduction at 10 µM (CHIKV): 8.68; CC50 [1]: > 40 µM

Question: What does the source list for CSc1ncccc1C(=O)Nc1nc(-c2cccc(Nc3cccc(C#N)c3)c2)cs1 [Compound 38, N-(4-(3-((3-Cyanophenyl)amino)phenyl)thiazol-2-yl)-2-(methylthio)nicotinamide]?
Answer: EC90 (CHIKV): 0.15 µM; log reduction at 10 µM (CHIKV): 5.72; CC50 [1]: > 40 µM

Question: Which EC90 (CHIKV) does the source give for CSc1ncccc1C(=O)Nc1nc(-c2cc(Cl)cc(Nc3ccc(C#N)cc3)c2)cs1 [Compound 49, N-(4-(3-chloro-5-((4-cyanophenyl)amino)phenyl)thiazol-2-yl)-2-(methylthio)nicotinamide] here?
Answer: 0.21 µM

Question: And the log reduction at 10 µM (CHIKV)?
Answer: 5.84

Question: And the CC50 [1]?
Answer: > 40 µM

Question: With CSc1ncccc1C(=O)Nc1nc(-c2cccc(-c3ccc(CN)cc3)c2)cs1 [Compound 26, N-(4-(4′-(aminomethyl)-[1,1′-biphenyl]-3-yl)thiazol-2-yl)-2-(methylthio)nicotinamide] as the compound, how does the EC90 (CHIKV) read?
Answer: 0.75 µM

Question: And the log reduction at 10 µM (CHIKV)?
Answer: 8.75

Question: What about the CC50 [1] of the same compound?
Answer: > 40 µM

Question: Which EC90 (CHIKV) does the source give for CSc1ncccc1C(=O)Nc1nc(-c2cccc(-c3ccc(C#N)cc3)c2)cs1 [Compound 4, N-(4-(4′-Cyano-[1,1′-biphenyl]-3-yl)thiazol-2-yl)-2-(methylthio)nicotinamide] here?
Answer: 0.31 µM

Question: And the log reduction at 10 µM (CHIKV)?
Answer: 4.73

Question: And the CC50 [1]?
Answer: > 40 µM

Question: What does the source list for CSc1ncccc1C(=O)Nc1nc(-c2cccc(Nc3ccc(C)c(C#N)c3)c2)cs1 [Compound 48, N-(4-(3-((3-cyano-4-methylphenyl)amino)phenyl)thiazol-2-yl)-2-(methylthio)nicotinamide]?
Answer: EC90 (CHIKV): 0.89 µM; log reduction at 10 µM (CHIKV): 4.52; CC50 [1]: > 40 µM

Question: Which log reduction at 10 µM (CHIKV) does the source give for CSc1ncccc1C(=O)Nc1nc(-c2cccc(Oc3ccccc3)c2)cs1 [Compound 36, 2-methylsulfanyl-N-[4-(3-phenoxyphenyl)thiazol-2-yl]pyridine-3-carboxamide] here?
Answer: 4.87

Question: What about the CC50 [1] of the same compound?
Answer: > 40 µM
